Experimental data: patent US10111437B2, “Substituted guanidines as fungicides” (Nippon Soda Co., Ltd., priority 2015, dated 2018)

How the values were obtained:
[1] = tested on: cucumber gray mold fungus (Botrytis cinerea); test: Cucumber gray mold control test (foliar spray on cucumber seedlings); details: in Cucumis sativus, 96 h, read-out: control value
[2] = tested on: Tomato late blight fungus (Phytophthora infestans); test: whole plant or invertebrate; type: in vivo; details: foliar, 96 h, read-out: control value
[3] = tested on: wheat leaf rust fungus (Puccinia recondita); test: Wheat leaf rust control test (foliar spray on wheat seedlings); type: in vivo; details: 240 h, 125 ppm active ingredient, sprayed on wheat seedlings (variety Norin 61) before inoculation, 10 days, vs untreated
[4] = tested on: Apple scab fungus (Venturia inaequalis); test: Apple scab control test (foliar spray on apple seedlings); type: in vivo; details: 125 ppm active ingredient, sprayed on apple seedlings (variety Orin) before inoculation, vs untreated
Method: The dilution was sprayed to apple seedlings (variety “Orin”, 3 to 4 leaf stage) grown in clay pots. […] The control value was calculated by the following equation. [formula]

Measured: pest or weed control at 125 ppm

N=C(N)NCCCCCCCCNC(=N)NCCCCOc1ccc(C(=N)N)cn1 [compound 61, 6-[4-[[N-(8-guanidinooctyl)carbamimidoyl]amino]butoxy]pyridine-3-carboxamidine]
≥ 75%: all assays above

N=C(N)NCCCCCCCCNC(=N)NCCCCOc1ccc(C(=N)N)cc1 [compound 188]
≥ 75%: all assays above

N=C(N)NCCCCCCCCNC(=N)NCCCCCOc1ccc(C(=N)N)cc1 [compound 171]
≥ 75%: all assays above

N=C(N)NCCCCCCCCNC(=N)NCCCOc1ccc(C(=N)N)cn1 [compound 120]
≥ 75%: all assays above

N=C(N)NCCCCCCCNC(=N)NCCCCCOc1ccc(C(=N)N)cc1 [compound 186]
≥ 75%: all assays above

N=C(N)NCCCCCCCCNC(=N)NCCCOc1ccc(C(=N)N)cc1Cl [compound 112]
≥ 75%: all assays above

N=C(N)NCCCCCCCCNC(=N)N1CCC(Oc2ccc(C3=NCCCN3)cc2)CC1 [compound 264]
≥ 75%: all assays above

N=C(N)NCCCCCCCCNC(=N)NCCCOc1ccc(C(=N)N)cc1 [compound 230]
≥ 75%: all assays above

N=C(NCCCCCCCCNC1=NCCN1)NCCCOc1ccc(C(=N)N)cc1 [compound 298]
≥ 75%: all assays above

N=C(N)NCCCCCCCCNC(=N)NCCCCOc1ccc(C2=NCCCCN2)cc1 [compound 254]
≥ 75%: all assays above

N=C(N)NCCCCCCCNC(=N)NCCCc1cc2cc(C(=N)N)ccc2o1 [compound 34, 2-(3-(3-(7-guanidinoheptyl)guanidino)propyl)benzofuran-5-carboximidamide]
≥ 75%: all assays above

N=C(N)c1ccc(OCCCn2ccn(CCCOc3ccc(C(=N)N)c(F)c3)c2=N)cc1F [compound 103]
≥ 75%: all assays above

CN(C)/C(=N\CCCOc1ccc(C(=N)N)cc1)NCCCOc1ccc(C(=N)N)cc1 [compound 130]
≥ 75%: all assays above

N=C(N)NCCCCCCCCNC(=N)NCCC#Cc1ccc(C(=N)N)cc1 [compound 153]
≥ 75%: all assays above

N=C(N)NCCCCCCCn1ccn(CCCOc2ccc(C(=N)N)cc2)c1=N [compound 25, 4-[3-[3-(7-guanidinoheptyl)-2-imino-imidazol-1-yl]propoxy]benzamidine]
≥ 75%: all assays above

N=C(NCC/C=C/c1ccc(C(=N)N)cc1)NCC/C=C/c1ccc(C(=N)N)cc1 [compound 151]
≥ 75%: all assays above

CNC(=N)c1ccc(OCCCCn2ccn(CCCOc3ccc(C(=N)N)cc3)c2=N)cc1 [compound 124]
≥ 75%: all assays above

N=C(N)NCCCCCCCN1CCN(CCCCCCCNC(=N)N)C1=N [compound 8, 1-[7-[3-(7-guanidinoheptyl)-2-imino-imidazolidin-1-yl]heptyl]guanidine]
≥ 75%: all assays above

N=C(N)c1ccc(OCCCCN2CCN(CCCCOc3ccc(C(=N)N)cc3)C2=N)cc1 [compound 6, 4-[4-[3-[4-(4-carbamimidoylphenoxy)butyl]-2-imino-imidazolidin-1-yl]butoxy]benzamidine]
≥ 75%: all assays above

N=C(NCCCCOc1ccc(C(=N)N)cc1)NCCCCOc1ccc(C(=N)N)cn1 [compound 194]
≥ 75%: all assays above

N=C(N)NCCCCCCCCNC(=N)NCCCCOc1ccc(C2=NCC(N)CN2)cc1 (stereo not shown) [compound 279]
≥ 75%: all assays above

N=C(N)NCCCCCCCCNC(=N)NCCC=Cc1ccc(C(=N)N)cc1 [compound 157]
≥ 75%: all assays above

CNC(=N)c1ccc(OCCCn2ccn(CCCOc3ccc(C(=N)N)cc3)c2=N)cc1 [compound 122]
≥ 75%: all assays above

CN=C(NCCCOc1ccc(C(=N)N)cc1)NCCCOc1ccc(C(=N)N)cc1 [compound 57, 4-[3-[[N-[3-(4-carbamimidoylphenoxy)propyl]-N′-methyl-carbamimidoyl]amino]propoxy]benzamidine]
≥ 75%: all assays above

N=C(N)NCCCCCCCNC(=N)NCCOCc1ccc(C(=N)N)cc1 [compound 228]
≥ 75%: all assays above

N=C(N)NCCCCCCCCNC(=N)NC/C=C/c1ccc(C(=N)N)cc1 [compound 167]
≥ 75%: all assays above

N=C(N)c1ccc(OCCCCn2ccn(CCCOc3ccc(C(=N)N)cc3)c2=N)cc1 [compound 40, 4-[4-[3-[3-(4-carbamimidoylphenoxy)propyl]-2-imino-imidazol-1-yl]butoxy]benzamidine]
≥ 75%: all assays above

N=C(N)NCCCCCCCCNC(=N)NCCCCOc1ccc(C2=NCCN2)cc1 [compound 246]
≥ 75%: all assays above

N=C(N)NCCCCCCCCNC(=N)NCCOCc1ccc(C(=N)N)cc1 [compound 200]
≥ 75%: all assays above

N=C(N)c1ccc(OCCCn2ccn(CCCc3cc4cc(C(=N)N)ccc4o3)c2=N)cc1 [compound 126]
≥ 75%: all assays above

N=C(N)NCCCCCCCCNC(=N)NCCCc1ccc(C(=N)N)cc1 [compound 169]
≥ 75%: all assays above

N=C(N)NCCCCCCCNC(=N)NCCCOc1ccc(C(=N)N)cc1 [compound 29, 4-[3-[[N-(7-guanidinoheptyl)carbamimidoyl]amino]propoxy]benzamidine]
≥ 75%: all assays above

N=C(N)NCCCCCCCCn1ccn(CCOc2ccc(C3=NCC(N)CN3)cc2)c1=N (stereo not shown) [compound 302]
≥ 75%: all assays above

N=C(N)NCCCCCCCCNC(=N)NCCCOCc1ccc(C2=NCCCN2)cc1 [compound 222]
≥ 75%: all assays above

N=C(N)NCCCCCCCCNC(=N)NCCCOCc1ccc(C(=N)N)cc1 [compound 145]
≥ 75%: all assays above

N=C(N)NCCCCCCCCNC(=N)NCCCc1ccc(C2=NCCCN2)cn1 [compound 273]
≥ 75%: all assays above

CN1CCCN=C1c1ccc(OCCNC(=N)NCCCCCCCCNC(=N)N)cc1 [compound 300]
≥ 75%: all assays above
